Measured values taken from patent publication US12037354B2, “Cyclic pantetheine derivatives and uses thereof” (VectivBio Comet AG, priority 2018, dated 2024).

Assays:
Assay type in all cases: cell-based, human
[1] = test system: Venular Endothelial cells (HUVEC) (3C system); test: BioMAP 3C system, Example 825
Experimental: The BioMAP platform (BioMAP® Diversity PLUS Panel from Eurofins) is an in vitro phenotypic profiling technology that screened the compounds of the present disclosure (hereafter indicated as test agents) in human primary cell-based systems modelling complex tissue and disease states. The BioMAP assays were performed using the Eurofin's BioMAP Technology Platform as (see references 1 to 13 in the example 824 section) to model different diseases on primary cell-based model systems. These systems consisted of either single primary cell types or co-culture cells. Adherent cell types were cultured or co-cultured in 96 or 384-well plates until confluence followed by the addition of compounds prepared in DMSO at a final concentration of ≤0.1%. […]
Following the general procedure as described in Example 824, Venular Endothelial cells (HUVEC) (3C system) were treated with IL-1β, TNFα, IFNγ for 24 h to model Th1 driven cardiovascular and chronic inflammation diseases in the presence or absence of the compounds. Biomarker read out were; Tissue Factor, ICAM-1, E-selectin, uPAR (CD87), IL-8, […], HLA-DR, proliferation and SRB (Sulfo-rhodamine i.e. staining for protein content).

[2] = test system: Venular Endothelial cells (HUVEC) (4H system); test: BioMAP 4H system, Example 826
Experimental: (§1) The BioMAP platform (BioMAP® Diversity PLUS Panel from Eurofins) is an in vitro phenotypic profiling technology that screened the compounds of the present disclosure (hereafter indicated as test agents) in human primary cell-based systems modelling complex tissue and disease states. The BioMAP assays were performed using the Eurofin's BioMAP Technology Platform as (see references 1 to 13 in the example 824 section) to model different diseases on primary cell-based model systems. These systems consisted of either single primary cell types or co-culture cells. Adherent cell types were cultured or co-cultured in 96 or 384-well plates until confluence followed by the addition of compounds prepared in DMSO at a final concentration of ≤0.1%. In each cell-based system, primary cells from heathy donors (2-6 donors) were pooled and treated with compounds at 1 and 10 μM dose 1 h prior to stimulation and remain in culture as indicated in
(§2) Example 825, Example 826, Example 827, Example 828, Example 829, Example 830, Example 831, Example 832, Example 833, Example 834, Example 835, Example 836 and Example 837. For on the BioMAP® Diversity PLUS® Panel, please see the following references, which are incorporate herein.
Following the general procedure as described in Example 824, Venular Endothelial cells (HUVEC) (4H system) were treated with IL-4 and histamine for 24 h to model Th2 driven allergy and autoimmunity in the presence or absence of compounds. Biomarkers read out were; MCP-1, Eotaxin-3. VCAM-1, P-selectin, uPAR (CD87), SRB and VEGFRII.

[3] = test system: Peripheral blood mononuclear cells co-cultured with venular endothelial cells (HUVEC) (LPS system); test: BioMAP LPS system, Example 827
Experimental: as §1, §2
Following the general procedure as described in Example 824, Peripheral blood mononuclear cells co-cultured with venular endothelial cells (HUVEC) (LPS system) were stimulated with LPS for 24 h in the presence or absence of compounds, to model cardiovascular disease and chronic inflammation. Biomarkers read out were; MCP-1, VCAM-1, Thrombomodulin, Tissue Factor, CD40, E-selectin, CD69, IL-8, IL-1α, M-CSF, sPGE2, SRB and TNFα.

[4] = test system: Peripheral blood mononuclear cells co-cultured with venular endothelial cells (Sag system); test: BioMAP Sag system, Example 828; settings: Sag system, 1 uM
Experimental: as §1, §2
Following the general procedure as described in Example 824, Peripheral blood mononuclear cells were co-cultured with venular endothelial cells and treated with soluble antigen (T-cell ligands) (Sag system) in the presence or absence of compounds to model autoimmune and chronic inflammation. Biomarkers read out were; MCP-1, CD38, CD40, E-selectin, CD69, IL-8, MIG, PBMC cytotoxicity, Proliferation and SRB.

[5] = test system: Peripheral blood mononuclear cells co-cultured with B-cells (BT system); test: BioMAP BT system, Example 829; settings: BT system; 10 uM
Experimental: as §1, §2
Following the general procedure as described in Example 824, Peripheral blood mononuclear cells were co-cultured with B-cells (BT system) were treated with either α-IgM and TCR ligands for 72 h in the presence or absence of the compounds to model asthma, allergy, oncology and autoimmunity. Biomarkers read out were; B-cell proliferation, PBMC cytotoxicity, secreted IgG, sIL-17A, sIL-17F, sIL-2, sIL-6 and s-TNFα.

[6] = test system: Bronchial epithelial cells co-cultured with dermal fibroblast (BF4T system); test: BioMAP BF4T system, Example 830; settings: 10 uM
Experimental: as §1, §2
Following the general procedure as described in Example 824, Bronchial epithelial cells were co-cultured with dermal fibroblast (BF4T system) and were treated with TNFα and IL-4 for 24 h in the presence or absence of the compounds to model asthma, allergy, fibrosis, lung inflammation. Biomarkers read out were; MCP-1, Eotaxin-3, VCAM-1, ICAM-1, CD90, IL-8, IL-1α, keratin 8/18, MMP-1, MMP-3, MMP-9, PAI-1, SRB, tPA, uPA.

[7] = test system: Coronary artery smooth muscle cells (CASM3C system); test: BioMAP CASM3C system, Example 832
Experimental: as §1, §2
Following the general procedure as described in Example 824, Coronary artery smooth muscle cells (CASM3C system) were treated with IL-1β, TNFα and IFNγ for 24 h in the presence or absence of the compounds to model cardiovascular inflammation and restenosis. Biomarker reads out were; MCP-1, VCAM-1, Throbomodulin, Tissue factor, uPAR, IL-8, MIG, HLA-DR, IL-6, LDLR, M-CSF, PAI-1, Proliferation, SAA and SRB

[8] = test system: Dermal fibroblasts (HDF3CGF system); test: BioMAP HDF3CGF system, Example 833; settings: 1 uM
Experimental: as §1, §2
Following the general procedure as described in Example 824, Dermal fibroblasts (HDF3CGF system) were treated with IL-1β, TNFα and IFNγ, EGF, bFGF and PDGF-BB for 24 h in the presence or absence of the compounds to model fibrosis and chronic inflammation. Biomarkers read out were; MCP-1, VCAM-1, ICAM-1, Collagen-I, Collagen-III, IP-10, I-TAC, IL-8, MIG, EGFR, M-CSF, MMP-1, PAI-1, SRB, TIMP-1, TIMP-2 and proliferation was measured for 72 h.

[9] = test system: Keratinocytes co-cultured with dermal fibroblast (KF3CT system); test: BioMAP KF3CT system, Example 834
Experimental: as §1, §2
Following the general procedure as described in Example 824, Keratinocytes were co-cultured with dermal fibroblast (KF3CT system) and treated with […], TNFα, IFNγ and TGFβ for 24 h in the presence or absence of the compounds to model psoriasis, dermatitis and skin biology. Biomarkers read out were; MCP-1, ICAM-1, IP-10, IL-8, MIG, IL-1α, MMP-9, PAI-1, SRB, TIMP-2, uPA.

[10] = test system: Venular endothelial cells co-cultured with macrophages (Mphg system); test: BioMAP Mphg system, Example 836
Experimental: as §1, §2
Following the general procedure as described in Example 824, Venular endothelial cells co-cultured with macrophages (Mphg system) and treated with TLR2 ligand for 24 h in the presence or absence of the compounds to mimic cardiovascular inflammation, restenosis and chronic inflammation. Biomarkers read out were; MCP-1, MIP-1α, VCAM-1, CD40, E-selectin, CD69, IL-8, IL-1α, M-CSF, sIL-10 and SRB.

[11] = test system: Monocytes differentiated to M1 macrophages; test: M1 differentiation assay (TNFα, IL6, IL10 ELISA, FACS), Example 807
Experimental: Monocytes were isolated by positive isolation with CD14+ microbeads (Miltenyi, 130-050-201). Monocytes were 99% viable and were 96% purity as analyzed by FACS and CD14+(BD, 563561). 100,000 monocytes along with compounds at the dose of 10 and 50 μM were allowed to differentiate to macrophages with 10 ng/ml GMCSF (R&D, 15-GM-050/CF) in RPMI complete media (Invitrogen, 22400089) with 15% FBS (Hyclone SV30087.03) and 1% Penicillin-Streptomycin (Gibco, 15140-122). On day 2 and 4 half the media was refreshed with fresh GM-CSF and compounds at 10 and 50 μM dose. On day 6 the macrophages were matured with GMCSF, IFNγ (R&D 285-IF-100/CF) and LPS (Sigma, L6143) in the presence of 10 μM and 50 μM of compounds. After 24 h, supernatant was collected for the measurement of TNFα (DKW, 1117202) IL6 (DKW, 1110602), IL10 (DKW, 1110003) by ELISA. Macrophages were detached gently on ice with EDTA (Invitrogen, 15575-038) and analyzed by FACS (BD LSR Fortessa, 853492). Cells were stained for live/dead dye, surface and intracellular markers with fixation/permeabilization solution (BD, 554714) and ALIVE/DEAD™ Fixable Near-IR Dead Cell Stain Kit (BD, L34976), mouse anti human CD86 APC (BD, 555660), mouse anti-human CD163 PE (BD, 556018), mouse anti-human CD68 FITC (BD, 562117) or isotype controls anti-mouse IgG1 κ PE (BD, 559320) and anti-mouse IgG1 κ APC (BD, Anti mouse IgG1 κ APC (BD, 55571). Mature M1 macrophages were defined as CD86+CD68+CD163− and increase in TNFα, IL6, and decrease in IL-10.

COC(=O)CCC(=O)CC(=O)SCCNC(=O)CCNC(=O)[C@@H]1OP(=O)(O)OCC1(C)C [Compound 6]
% decrease in IL-8 ([1]; 3C system, 1 uM): ≥10%
% increase in Proliferation (HUVEC) ([1]; 3C system, 10 uM): ≥20%
% increase in Proliferation (HUVEC) ([1]; concentration tested 10 uM): ≥20%
% decrease in IL-8 ([1]; procedure of Example 825, concentration tested 1 uM): ≥10%
% decrease in MCP-1 ([2]; 4H system, 1 uM): ≥10%
% decrease in VEGFRII ([2]; 4H system, 1 uM): ≥10%
% decrease in MCP-1 ([2]; concentration tested 1 uM): ≥10%
% decrease in VEGFRII ([2]; concentration tested 1 uM): ≥10%
% decrease in M-CSF ([3]; Example 988, concentration tested 1 uM): ≥10%
% decrease in IL-8 ([3]; LPS system, 1 uM): ≥10%
% decrease in M-CSF ([3]; LPS system, 1 uM): ≥10%
% decrease in Tissue Factor ([3]; LPS system, 1 uM): ≥10%
% decrease in sTNFα ([3]; LPS system, 1 uM): ≥20%
% decrease in Tissue Factor ([3]; concentration tested 1 uM): ≥10%
% decrease in sTNFα ([3]; concentration tested 1 uM): ≥20%
% decrease in IL-8 ([3]; procedure of Example 827, concentration tested 1 uM): ≥10%
% increase in MCP-1 [4]: ≥10%
% decrease in sTNFα [5]: ≥10%
% increase in VCAM-1 [6]: ≥10%
% decrease in HLA-DR ([7]; 1 uM): ≥10%
% decrease in M-CSF ([7]; 1 uM): ≥10%
% decrease in VCAM-1 ([7]; 1 uM): ≥10%
% decrease in Thrombomodulin ([7]; 10 uM): ≥20%
% decrease in TIMP-1 [8]: ≥10%
% increase in 72 Hour Proliferation [8]: ≥10%
% decrease in MCP-1 ([9]; 10 uM (Example 927)): ≥10%
% decrease in MCP-1 ([9]; 10 uM (Example 928)): ≥10%
% decrease in α-SMA ([10]; procedure of Example 836, 1 uM): ≥10%
% increase in MMP-1 ([10]; procedure of Example 836, 10 uM): ≥10%

CCOC(=O)CCC(=O)SCCNC(=O)CCNC(=O)[C@@H]1OP(=O)(N[C@@H](C)C(=O)OCC)OCC1(C)C (some centres unmarked) [Compound 206]
% increase in sIL-6 [5]: ≥20%

CC(C)=CC(=O)SCCNC(=O)CCNC(=O)[C@@H]1OC(C)(C)OCC1(C)C [Compound 850, S-2-(3-{[(R)-2,2,5,5-Tetramethyl-1,3-dioxan-4-yl]carbonylamino}propionylamino)ethyl 3-methyl-2-butenethioate]
% decrease in Macrophage IL-6 Secretion ([11]; 10 uM): ≥30%
% decrease in Macrophage TNFα Secretion ([11]; 50 uM): ≥30%

CC1(C)OC(=O)C(CC(=O)SCCNC(=O)CCNC(=O)[C@@H]2OC(C)(C)OCC2(C)C)O1 (some centres unmarked) [Compound 851]
% Increase in IL-10 Secretion ([11]; 10 uM): ≥30%
% decrease in Macrophage IL-6 Secretion ([11]; 10 uM): ≥30%
% decrease in Macrophage TNFα Secretion ([11]; 10 uM): ≥30%
